Converted amounts (≈) assume the structure as drawn.

One may read the EC50 as the midpoint of the concentration-response curve. The term IC50 denotes the point on the concentration scale where inhibition reaches its midpoint. A higher IC50 goes with weaker potency. As usually defined, the solubility is the concentration that dissolves in the medium under given conditions. Broadly, the clearance is the volume of plasma or blood freed of the substance per unit of time. High values mean efficient removal, low ones inefficient removal.

For data set [1], the target named is rat mGlu5 receptors (Rattus norvegicus, UniProt P31424). Kind of data set: 'triple add' calcium mobilization assay, mGlu5 PAM/NAM/agonist modes. Format: cell-based. Particulars: for fold increase in mGlu5 potency vs series 3 counterpart: dihydro analogue 4 vs corresponding analogue 3. (A change in cytosolic calcium serves as a functional read-out for many receptors and channels.)
Chain of rat mGlu5 receptors (P31424 21-1203): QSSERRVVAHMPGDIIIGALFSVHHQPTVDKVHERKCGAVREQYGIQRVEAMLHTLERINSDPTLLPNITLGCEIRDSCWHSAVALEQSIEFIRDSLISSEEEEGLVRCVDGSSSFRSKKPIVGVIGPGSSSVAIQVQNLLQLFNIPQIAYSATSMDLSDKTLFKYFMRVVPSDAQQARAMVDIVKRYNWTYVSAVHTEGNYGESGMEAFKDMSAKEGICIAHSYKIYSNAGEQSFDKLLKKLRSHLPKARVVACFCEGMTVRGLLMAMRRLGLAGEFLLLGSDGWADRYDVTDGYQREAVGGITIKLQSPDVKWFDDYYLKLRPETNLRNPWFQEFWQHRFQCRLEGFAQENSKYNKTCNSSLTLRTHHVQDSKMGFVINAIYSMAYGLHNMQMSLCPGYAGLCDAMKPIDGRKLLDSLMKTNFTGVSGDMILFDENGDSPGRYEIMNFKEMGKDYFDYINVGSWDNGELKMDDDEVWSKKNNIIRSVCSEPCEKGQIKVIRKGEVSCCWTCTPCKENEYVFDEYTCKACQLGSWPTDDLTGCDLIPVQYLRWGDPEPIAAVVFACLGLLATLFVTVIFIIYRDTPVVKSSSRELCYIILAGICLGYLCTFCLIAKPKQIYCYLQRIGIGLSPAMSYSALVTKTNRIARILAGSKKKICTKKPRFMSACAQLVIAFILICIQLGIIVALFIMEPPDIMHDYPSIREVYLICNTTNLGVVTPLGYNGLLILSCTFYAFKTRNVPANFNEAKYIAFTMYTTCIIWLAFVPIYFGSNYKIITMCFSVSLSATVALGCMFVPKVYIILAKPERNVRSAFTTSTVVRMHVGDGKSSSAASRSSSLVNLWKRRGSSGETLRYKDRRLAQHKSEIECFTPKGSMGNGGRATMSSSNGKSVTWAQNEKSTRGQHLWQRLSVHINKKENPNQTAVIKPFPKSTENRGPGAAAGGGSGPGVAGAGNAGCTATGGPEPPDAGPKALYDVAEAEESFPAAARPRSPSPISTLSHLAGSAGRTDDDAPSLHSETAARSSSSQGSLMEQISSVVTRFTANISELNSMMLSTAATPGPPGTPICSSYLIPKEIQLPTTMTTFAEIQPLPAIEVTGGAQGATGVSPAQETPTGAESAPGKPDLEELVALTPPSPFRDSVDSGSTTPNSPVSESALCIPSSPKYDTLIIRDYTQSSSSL

Data set [2] deals with T1, mGlu3 (Homo sapiens, UniProt Q14832). Kind of data set: cell-based.
T1 sequence (Q14832 23-879): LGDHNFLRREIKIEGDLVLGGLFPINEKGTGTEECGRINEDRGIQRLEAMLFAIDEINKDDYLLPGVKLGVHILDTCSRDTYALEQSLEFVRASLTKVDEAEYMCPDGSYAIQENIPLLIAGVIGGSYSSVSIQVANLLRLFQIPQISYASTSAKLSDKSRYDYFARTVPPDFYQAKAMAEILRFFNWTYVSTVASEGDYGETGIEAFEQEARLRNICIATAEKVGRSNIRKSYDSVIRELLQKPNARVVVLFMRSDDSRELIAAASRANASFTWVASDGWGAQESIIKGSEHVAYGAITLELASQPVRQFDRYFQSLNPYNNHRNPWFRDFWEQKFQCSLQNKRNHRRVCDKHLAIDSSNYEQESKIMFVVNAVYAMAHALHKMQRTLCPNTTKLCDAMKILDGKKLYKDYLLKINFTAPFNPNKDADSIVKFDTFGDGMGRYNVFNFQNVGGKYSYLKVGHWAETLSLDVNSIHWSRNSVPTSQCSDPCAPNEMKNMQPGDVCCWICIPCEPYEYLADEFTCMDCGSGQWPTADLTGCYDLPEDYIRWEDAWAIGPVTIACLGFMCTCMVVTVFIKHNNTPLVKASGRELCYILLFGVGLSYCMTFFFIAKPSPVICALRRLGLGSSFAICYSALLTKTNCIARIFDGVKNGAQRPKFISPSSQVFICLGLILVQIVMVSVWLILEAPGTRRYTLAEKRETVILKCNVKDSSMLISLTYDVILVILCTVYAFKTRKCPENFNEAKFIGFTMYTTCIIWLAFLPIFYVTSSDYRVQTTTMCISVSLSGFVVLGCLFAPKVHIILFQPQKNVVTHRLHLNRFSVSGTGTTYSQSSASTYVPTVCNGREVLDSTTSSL
Data set [3] deals with CYP2D6 (Homo sapiens, UniProt P10635). Kind of data set: CYP inhibition cocktail assay using HLM and known substrates.
Chain of CYP2D6 (P10635 whole entry): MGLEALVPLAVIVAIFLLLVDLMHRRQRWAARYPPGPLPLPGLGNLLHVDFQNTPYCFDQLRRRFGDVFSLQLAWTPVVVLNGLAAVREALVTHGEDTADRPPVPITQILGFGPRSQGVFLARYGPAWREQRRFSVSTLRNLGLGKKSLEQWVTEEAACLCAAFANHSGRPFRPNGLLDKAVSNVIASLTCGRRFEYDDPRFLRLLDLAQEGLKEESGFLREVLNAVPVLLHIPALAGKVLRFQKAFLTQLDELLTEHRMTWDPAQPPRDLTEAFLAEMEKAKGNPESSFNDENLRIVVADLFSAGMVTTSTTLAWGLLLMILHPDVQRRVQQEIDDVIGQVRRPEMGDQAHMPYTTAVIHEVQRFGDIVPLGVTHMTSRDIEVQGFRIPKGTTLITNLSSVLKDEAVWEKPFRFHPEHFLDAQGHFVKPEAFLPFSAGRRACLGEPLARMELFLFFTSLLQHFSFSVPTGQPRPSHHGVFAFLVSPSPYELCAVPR
Data set [4] has as its target CYP3A4 (Homo sapiens, UniProt P08684). Described as above.
Data set [5] relates to other mGlu receptors (mGlu1–4,6–8, except mGlu3). Kind of data set: selectivity profiling against the other mGlu receptors. It is filed as cell-based. To be noted: read-out: other mGlu EC50; mGlu receptors other than mGlu5 and mGlu3.
Data set [6] addresses T2, CYP1A2 (Homo sapiens, UniProt P05177).
T2 sequence (P05177 1-516): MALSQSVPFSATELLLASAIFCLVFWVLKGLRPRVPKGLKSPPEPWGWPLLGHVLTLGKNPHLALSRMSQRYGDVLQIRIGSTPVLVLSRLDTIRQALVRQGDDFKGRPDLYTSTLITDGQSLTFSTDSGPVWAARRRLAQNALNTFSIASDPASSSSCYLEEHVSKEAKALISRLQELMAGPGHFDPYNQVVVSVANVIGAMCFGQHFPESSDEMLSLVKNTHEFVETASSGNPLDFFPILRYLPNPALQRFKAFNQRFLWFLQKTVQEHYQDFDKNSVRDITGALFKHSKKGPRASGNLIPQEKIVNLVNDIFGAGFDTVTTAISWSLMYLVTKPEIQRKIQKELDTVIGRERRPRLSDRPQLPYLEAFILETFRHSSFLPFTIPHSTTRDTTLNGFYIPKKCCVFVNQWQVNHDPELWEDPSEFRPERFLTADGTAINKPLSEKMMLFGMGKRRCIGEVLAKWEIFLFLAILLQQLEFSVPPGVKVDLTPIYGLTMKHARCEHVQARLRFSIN
Kind of data set: CYP inhibition cocktail assay using HLM and known substrates.

The target in data set [7] is CYP2C9 (Homo sapiens, UniProt P11712). The data set is described as above.
Chain of CYP2C9 (P11712 whole entry): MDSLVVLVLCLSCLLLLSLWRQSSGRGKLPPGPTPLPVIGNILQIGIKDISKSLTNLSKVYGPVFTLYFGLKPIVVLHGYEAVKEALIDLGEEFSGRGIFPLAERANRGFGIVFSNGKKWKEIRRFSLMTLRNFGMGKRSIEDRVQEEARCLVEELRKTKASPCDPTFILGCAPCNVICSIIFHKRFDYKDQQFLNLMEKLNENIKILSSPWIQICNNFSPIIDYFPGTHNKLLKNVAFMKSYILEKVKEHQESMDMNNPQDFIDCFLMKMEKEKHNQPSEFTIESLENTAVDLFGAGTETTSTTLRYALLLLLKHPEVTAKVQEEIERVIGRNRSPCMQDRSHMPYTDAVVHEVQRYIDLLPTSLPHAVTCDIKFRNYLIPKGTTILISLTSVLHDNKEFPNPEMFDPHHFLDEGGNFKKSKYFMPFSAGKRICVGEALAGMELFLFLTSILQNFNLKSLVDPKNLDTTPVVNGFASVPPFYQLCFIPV
Data set [8] in a line: solubility in fasted simulated intestinal fluid. Format: physicochemical. Particulars: fasted simulated intestinal fluid (FaSSIF), pH 7.2, fassif.
Data set [9] deals with rats. Kind of data set: adverse effects in rats. Format: in vivo, rat.
Data set [10] can be described thus: in vivo PK study in rats. Particulars: rat.
Data set [11] concerns dogs. Kind of data set: adverse effects in in vivo PK studies in dogs. Particulars: 0.5 mg/mL i.v. Set-up: species or system dog.
In data set [12] the test system is amphetamine-induced hyperlocomotion. Kind of data set: reversal of amphetamine-induced hyperlocomotion. Particulars: rat.
The target in data set [13] is T1, mGlu3. To be noted: NAM.

Chain of CYP3A4 (P08684 whole entry): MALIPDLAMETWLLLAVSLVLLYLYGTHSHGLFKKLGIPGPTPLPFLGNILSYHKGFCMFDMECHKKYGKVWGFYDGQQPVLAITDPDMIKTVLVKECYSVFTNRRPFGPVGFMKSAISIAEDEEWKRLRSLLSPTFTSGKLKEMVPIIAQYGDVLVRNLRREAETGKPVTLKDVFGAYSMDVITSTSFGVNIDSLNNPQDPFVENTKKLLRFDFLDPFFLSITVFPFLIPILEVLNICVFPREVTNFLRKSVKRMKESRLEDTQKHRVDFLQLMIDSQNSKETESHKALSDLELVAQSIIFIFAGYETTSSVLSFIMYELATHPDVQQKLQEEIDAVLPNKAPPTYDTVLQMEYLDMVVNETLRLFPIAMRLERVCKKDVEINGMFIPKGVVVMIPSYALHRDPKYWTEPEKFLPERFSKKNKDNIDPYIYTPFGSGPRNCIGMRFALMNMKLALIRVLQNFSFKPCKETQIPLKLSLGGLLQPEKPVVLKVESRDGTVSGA

Regarding `O=C1N(c2ccc(F)cc2)CCc2nc(COc3ccc(F)cc3)cn21` [4i], the “fold increase in mGlu5 potency vs series 3 counterpart” value (shortened to “fold increase in mGlu5 potency”) in data set [1] was ≤ 3.3 fold.

As to `O=c1n(-c2ccc(F)cc2)ccc2nc(COc3ccccc3)cn12` [3e], the results for the EC50 in data set [2] and in data set [5] were 0.63 µM and > 10 µM, respectively. Moreover, the IC50 is > 20 µM in data set [3], > 20 µM in [4], 9.3 µM in [6] and > 20 µM in data set [7].

As to `O=C1N(c2ccc(F)cc2)CCc2nc(COc3cccc(F)c3)cn21` [4h], in data set [1], the “fold increase in mGlu5 potency” value is listed as ≤ 3.3 fold.

The compound `O=C1N(c2ccc(F)cc2)CCc2nc(COc3ccccc3)cn21` [4a] returned a solubility in data set [8] of 6 µg/mL (≈ 17.8 µM). Further, the “CNS-mediated side effects, modified Irwin neurological test battery” value in data set [9] (120 mg/kg) is on record as “pro-convulsive behavior”. The “adverse effects in PK and pharmacological experiments” value in [9] (up to 100 mg/kg p.o.) is recorded as “no significant adverse effects”. For the same compound, in data set [10] (in vivo, 1 mg/kg), the clearance worked out at 23.3 mL/min/kg. The “brain AUC” value in data set [10] (0.5-7.0 h) amounted to 12.7 µM-h. Besides, the “CNS-mediated side effects in PK studies” value in data set [11] is given as “dizziness”. For the same compound, the concentration for a half-maximal effect (EC50) in data set [2] was 0.29 µM; in data set [5], > 10 µM. In addition, in [12], the “lowest active oral dose, reversal of AIH” value is 3 mg/kg. Besides, the “mGlu3 % Glu Max” value in [13] was 3%. For the same compound, the mGlu5 agonistic activity entry in data set [1] (up to the highest concentration tested of 30 µM) is listed as “lack of mGlu5 agonistic activity”.

Consider `Cc1cc(N2CCc3nc(COc4ccccc4)cn3C2=O)ccc1F` [4c], for which, in [1], the “fold increase in mGlu5 potency” value is 1.8–2.4 fold.

Consider `O=C1N(c2cccc(F)c2)CCc2nc(COc3ccccc3)cn21` [4b], for which the “fold increase in mGlu5 potency” value in data set [1] is listed as 1.8–2.4 fold.

These data come from publication PMC4399811 (Bioorganic & medicinal chemistry letters, 2015).
